Reference: US7732603B2, “Organic compounds as agents for the treatment of aldosterone mediated conditions” (Novartis AG, priority 2002, dated 2010)

Test system: not given
Assay: not given
Conditions: not given

SMILES	melting point [°C]
N#Cc1ccc(C2C(=O)N(CC3CC3)Cc3cncn32)cc1 (stereo not shown) [Example 1, 4-(7-Cyclopropylmethyl-6-oxo-5,6,7,8-tetrahydro-imidazo[1,5-a]pyrazin-5-yl)-benzonitrile]	146 to 147
N#Cc1ccc(C2C(=O)N(Cc3ccccc3)Cc3cncn32)cc1 (stereo not shown) [Example 3, 4-(7-Benzyl-6-oxo-5,6,7,8-tetrahydro-imidazo[1,5-a]pyrazin-5-yl)-benzonitrile]	163 to 165
COc1ccc(CN2Cc3cncn3C(c3ccc(C#N)cc3)C2=O)cc1 (stereo not shown) [Example 9, 4-[7-(4-Methoxy-benzyl)-6-oxo-5,6,7,8-tetrahydro-imidazo[1,5-a]pyrazin-5-yl)-benzonitrile]	155 to 157
Cc1ccc(CN2Cc3cncn3C(c3ccc(C#N)cc3)C2=O)cc1 (stereo not shown) [Example 10, 4-[7-(4-Methyl-benzyl)-6-oxo-5,6,7,8-tetrahydro-imidazo[1,5-a]pyrazin-5-yl)-benzonitrile]	168 to 170
N#Cc1ccc(C2C(=O)N(Cc3ccc(F)cc3)Cc3cncn32)cc1 (stereo not shown) [Example 14, 4-[6-Oxo-7-(4-fluoro-benzyl)-5,6,7,8-tetrahydro-imidazo[1,5-a]pyrazin-5-yl]-benzonitrile]	132 to 135
N#Cc1ccc(C2C(=O)N(Cc3ccc(Cl)c(Cl)c3)Cc3cncn32)cc1 (stereo not shown) [Example 16]	175 to 176
CN1Cc2cncn2C(c2ccc(Br)cc2)C1=O (stereo not shown) [Example 20, 5-(4-Bromo-phenyl)-7-methyl-7,8-dihydro-imidazo[1,5-a]pyrazin-6-one]	143 to 144
COc1ccc(CN2Cc3cncn3C(c3ccc(Br)cc3)C2=O)cc1 (stereo not shown) [Example 21, 5-(4-Bromo-phenyl)-7-(4-methoxy-benzyl)-7,8-dihydro-imidazo[1,5-a]pyrazin-6-one]	123 to 124
Cl.O=C1C(c2cccc(Br)c2)n2cncc2CN1CC1CC1 (stereo not shown) [Example 32, 5-(3-Bromo-phenyl)-7-cyclopropylmethyl-7,8-dihydro-imidazo[1,5-a]pyrazin-6-one hydrochloride]	249 to 250
O=C1C(c2cccc(Br)c2)n2cncc2CN1Cc1ccsc1 (stereo not shown) [Example 50, 5-(3-Bromo-phenyl)-7-thiophen-3-ylmethyl-7,8-dihydro-imidazo[1,5-a]pyrazin-6-one]	43 to 45
O=C1C(c2cccc(Br)c2)n2cncc2CN1Cc1cccnc1 (stereo not shown) [Example 52, 5-(3-Bromo-phenyl)-7-pyridin-3-ylmethyl-7,8-dihydro-imidazo[1,5-a]pyrazin-6-one]	50 to 54
O=C1C(c2cccc(Br)c2)n2cncc2CN1Cc1ccccn1 (stereo not shown) [Example 53, 5-(3-Bromo-phenyl)-7-pyridin-2-ylmethyl-7,8-dihydro-imidazo[1,5-a]pyrazin-6-one]	52 to 56
O=C1C(c2cccc(Br)c2)n2cncc2CN1Cc1ccncc1 (stereo not shown) [Example 54, 5-(3-Bromo-phenyl)-7-pyridin-4-ylmethyl-7,8-dihydro-imidazo[1,5-a]pyrazin-6-one]	50 to 54
Cc1ccc(CN2Cc3cncn3CC2=O)cc1 [Example 64, 7-(4-Methyl-benzyl)-7,8-dihydro-imidazo[1,5-a]pyrazin-6-one]	105 to 108
O=C1Cn2cncc2CN1Cc1ccc(F)cc1 [Example 65, 7-(4-Fluoro-benzyl)-7,8-dihydro-imidazo[1,5-a]pyrazin-6-one]	112 to 114
N#Cc1cccc(C2C(=O)N(Cc3ccccc3)Cc3cncn32)c1 (stereo not shown) [Example 66]	163 to 165
COc1ccc(CN2Cc3cncn3C(c3ccc(-c4ccsc4)cc3)C2=O)cc1 (stereo not shown) [Example 75, 7-(4-Methoxy-benzyl)-5-(4-thiophen3-yl-phenyl)-7,8-dihydro-imidazo[1,5-a]pyrazin-6-one]	162 to 164
O=C1C(c2ccc(-c3ccccc3)cc2)n2cncc2CN1Cc1ccc(F)cc1 (stereo not shown) [Example 78, 5-Biphenyl-4-yl-7-(4-fluoro-benzyl)-7,8-dihydro-imidazo[1,5-a]pyrazin-6-one]	189 to 190
CC1(c2ccc(C#N)cc2)C(=O)N(Cc2ccc(F)cc2)Cc2cncn21 (stereo not shown) [Example 85, 4-[7-(4-Fluoro-benzyl)-5-methyl-6-oxo-5,6,7,8-tetrahydro-imidazo[1,5-a]pyrazin-5-yl]-benzonitrile]	66 to 70
C[C@@H](c1ccc(F)cc1)N1Cc2cncn2C(C)(c2ccc(C#N)cc2)C1=O (stereo partly shown) [Example 86, 4(7-[(s)-1-(4-Fluoro-phenyl)-ethyl]-5-methyl-6-oxo-5,6,7,8-tetrahydro-imidazo[1,5-a]pyrazin-5-yl]-benzonitrile]	78 to 82
O=C1N(Cc2ccc(F)cc2)Cc2cncn2C1(Cc1ccccc1)c1ccc(Br)cc1 (stereo not shown) [Example 87, 5-Benzyl-5-(4-bromo-phenyl)-7-(4-fluoro-benzyl)-7,8-dihydro-imidazo[1,5-a]pyrazin-6-one]	166 to 168
N#Cc1ccc(C2(Cc3ccccc3)C(=O)N(Cc3ccccc3)Cc3cncn32)cc1 (stereo not shown) [Example 88, 4-(5,7-Dibenzyl-6-oxo-5,6,7,8-tetrahydro-imidazol[1,5-a]pyrazin-5-yl)-benzonitrile]	246 to 248
N#Cc1ccc(C2(Cc3ccccc3)C(=O)N(CC3CC3)Cc3cncn32)cc1 (stereo not shown) [Example 89, 4-(5-Benzyl-7-cyclopropylmethyl-6-oxo-5,6,7,8-tetrahydro-imidazo[1,5-a]pyrazin-5-yl)-benzonitrile]	156 to 158
N#Cc1ccc(C2CC(=O)N(Cc3ccccc3)Cc3cncn32)cc1 (stereo not shown) [Example 92, 4-(8-Benzyl-7-oxo-6,7,8,9-tetrahydro-5H-imidazo[1,5-a][1,4]diazepin-5-yl)-benzonitrile]	65
N#Cc1ccc(C2CC(=O)N(CC3CC3)Cc3cncn32)cc1 (stereo not shown) [Example 93, 4-(8-Cyclopropylmethyl-7-oxo-6,7,8,9-tetrahydro-5H-imidazo[1,5-a][1,4]diazepin-5-yl)-benzonitrile]	178 to 180

Target: T1, aldosterone synthase (Rattus norvegicus, UniProt P30099)
T1 construct: The adrenals are decapsulated to obtain the glomerulosa tissue; The tissue is homogenized in a glass homogenizer; from tissue; host or cells: rat adrenal glomerulosa tissue homogenate (900 x g supernatant), sodium-depleted Sprague-Dawley rats
T1 sequence (P30099 35-510): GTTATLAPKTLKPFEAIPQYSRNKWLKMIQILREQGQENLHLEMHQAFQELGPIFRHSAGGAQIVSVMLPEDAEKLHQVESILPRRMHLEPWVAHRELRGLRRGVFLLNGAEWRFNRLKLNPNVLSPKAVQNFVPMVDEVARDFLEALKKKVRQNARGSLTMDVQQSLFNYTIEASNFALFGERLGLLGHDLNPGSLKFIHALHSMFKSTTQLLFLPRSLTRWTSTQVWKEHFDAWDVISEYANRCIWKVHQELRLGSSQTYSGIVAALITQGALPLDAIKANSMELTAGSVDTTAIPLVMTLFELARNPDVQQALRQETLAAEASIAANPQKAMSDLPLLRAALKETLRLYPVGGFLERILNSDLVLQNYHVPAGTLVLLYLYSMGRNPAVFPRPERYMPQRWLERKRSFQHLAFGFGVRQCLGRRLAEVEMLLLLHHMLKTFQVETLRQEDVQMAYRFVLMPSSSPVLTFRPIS
Assay: aldosterone synthase inhibitory activity in vitro (rat adrenal glomerulosa homogenate, conversion of [3H]corticosterone)
Assay type: biochemical
Conditions: read-out: inhibit the aldosterone synthase activity with an IC50 value
From the text: The aldosterone synthase inhibitory activity in vitro may be determined as follows:
Adult male Sprague-Dawley rats weighing 125-150 g are obtained from Harlan Farms. All animals are caged in pairs and maintained under standard conditions of light and temperature. The animals are placed on a sodium depleted diet (0.01-0.02%) from Harland Teklad, Madison Wis. (cat# TD90228) and maintained on normal drinking water ad libitum. The animals are maintained on this diet for two to four weeks prior to harvesting the adrenal glomerulosa cells. The rats are killed by CO2 inhalation, and the adrenals are immediately removed and placed in the same ice-cold buffer used during homogenization and assay of the enzyme preparation. The adrenals are decapsulated to obtain the glomerulosa tissue. The tissue is homogenized in a glass homogenizer containing Tris assay buffer (8.5 mM MgCl2, 2.7 mM CaCl2, 3.13 mM KCl, 7.59 mM NaCl, 0.1% TEA and 50 mM Tris HCl adjusted to pH 7.4). The homogenate is diluted so that 37.5 mg of glomerulosa tissue is in each mL of buffer. […] The plates are scanned for radioactivity with a Bioscan System 200 Imaging Scanner (Bioscan, Ish. DC). The two products of the aldosterone synthase, 18-OH-corticosterone and aldosterone are scraped and counted in a liquid scintillation counter (Beckman LS6000TA, Beckman Instr., Palo Alto, Calif.).
The IC50s are determined from a logit-log plot (pseudo-Hill plot) according to the equation (see Pratt and Taylor, Eds, “Principles of Drug Action”, Churchill Livingstone Inc, NY (1990)): log P/(100−P)=n log[I][…] where P is the percent competition of specific binding in the presence of a given concentration of inhibitor (I). The slope (Hill Coefficient) and x intercept (IC50) are determined by linear regression of the experimental data. The Km(app) is calculated by a computer program according to the Hanes equation (see Cornish-Bowden, Ed., “Principles of Enzyme Kinetics”, Butterworth & Co., Boston, Mass. (1976)): s/v=Km/V+s/V where Km=Michaelis constant, V=maximum velocity, s=substrate concentration, v=velocity.

SMILES	IC50 [nM]
N#Cc1ccc(C2C(=O)N(CC3CC3)Cc3cncn32)cc1 (stereo not shown) [Example 1, 4-(7-Cyclopropylmethyl-6-oxo-5,6,7,8-tetrahydro-imidazo[1,5-a]pyrazin-5-yl)-benzonitrile]	~12
N#Cc1ccc(C2C(=O)N(Cc3ccccc3)Cc3cncn32)cc1 (stereo not shown) [Example 3, 4-(7-Benzyl-6-oxo-5,6,7,8-tetrahydro-imidazo[1,5-a]pyrazin-5-yl)-benzonitrile]	~4
Cl.O=C1C(c2cccc(Br)c2)n2cncc2CN1CC1CC1 (stereo not shown) [Example 32, 5-(3-Bromo-phenyl)-7-cyclopropylmethyl-7,8-dihydro-imidazo[1,5-a]pyrazin-6-one hydrochloride]	~9
